Measurements as given in ChEMBL document CHEMBL2086263, “Synthesis and SAR studies of 3-allyl-4-prenyloxyaniline amides as potent 15-lipoxygenase inhibitors” (Bioorg Med Chem, 2012).

Legend:
[1] = Inhibition of soybean 15-lipoxygenase using linoleic acid as substrate incubated for 5 mins prior to substrate addition measured after 7 mins by DMAB-MBTH method; parameters: species or system Glycine max
[2] = test system: Radical scavenging activity; test: Antioxidant activity assessed as inhibition of DPPH radical scavenging activity after 30 mins by spectrophotometry; assay type: functional

SMILES	IC50 [1] [µM]	IC50 [2] [µM]
C=CCc1cc(NC(C)=O)ccc1OC/C=C(\C)CC/C=C(\C)CCC=C(C)C	24.8	225
C=CCOc1ccc(NC(=O)C23CC4CC(CC(C4)C2)C3)cc1CC=C	9.8	–
C=CCOc1ccc(NC(=O)C2CCCC2)cc1CC=C	58	–
C=CCc1cc(NC(=O)C23CC4CC(CC(C4)C2)C3)ccc1OCC=C(C)C	10.3	105
C=CCOc1ccc(NC(=O)C2CC2)cc1CC=C	54.1	–
C=CCc1cc(NC(=O)C23CC4CC(CC(C4)C2)C3)ccc1OC/C=C(\C)CCC=C(C)C	3.6	121
C=CCc1cc(NC(=O)C2CCCCC2)ccc1OC/C=C(\C)CC/C=C(\C)CCC=C(C)C	5.2	529
C=CCOc1ccc(NC(=O)C23CC4CC(CC(C4)C2)C3)cc1	27.8	–
Cc1nc(N2CCN(C)CC2)nc2c1Nc1ccccc1S2	28.2	–
CC(Cc1ccc(O)c(O)c1)C(C)Cc1ccc(O)c(O)c1 (stereo unspecified) [NORDIHYDROGUAIARETIC ACID]	–	6.2
C=CCOc1ccc(NC(=O)C2CCC2)cc1CC=C	19.6	–
O=C(O)/C=C/c1ccc(O)c(O)c1 [CAFFEIC ACID]	37.1	–

More lines, in order of falling IC50 [1], values ahead:

IC50 [1] [µM]	IC50 [2] [µM]	SMILES
67.8	–	C=CCOc1ccc(NC(C)=O)cc1CC=C
35.7	461	C=CCc1cc(NC(=O)C2CCCC2)ccc1OC/C=C(\C)CC/C=C(\C)CCC=C(C)C
18.5	–	C=CCOc1ccc(NC(=O)C2CCCCC2)cc1CC=C
16.5	8.9	C=CCc1cc(NC(=O)C2CC2)ccc1OC/C=C(\C)CC/C=C(\C)CCC=C(C)C
2.1	140	C=CCc1cc(NC(=O)C2CCC2)ccc1OC/C=C(\C)CC/C=C(\C)CCC=C(C)C
0.69	114	C=CCc1cc(NC(=O)C23CC4CC(CC(C4)C2)C3)ccc1OC/C=C(\C)CC/C=C(\C)CCC=C(C)C
